According to patent publication EP2951180B1, “2,6,7,8 SUBSTITUTED PURINES AS HDM2 INHIBITORS” (Merck Sharp & Dohme Corp., priority 2013, dated 2014):
Where two headings read alike, the source gives them in different places.

Target: T1, HDM2 (Homo sapiens, UniProt Q00987)
T1 construct: Thioredoxin (N); made in house; host or cells: E. coli strain BL21(DE3)Rosetta
Assay: HDM2 FRET assay (inhibition of binding of FITC labeled p53-pocket peptide to HDM2)
Outline: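 Signal is read as the 520/495 nm emission ratio and converted to percent inhibition; nonlinear sigmoidal regression yields IC50. The assay mixes HDM2 (0.5 nM), FITC-p53 peptide (3 nM) and Tb anti-His antibody (0.25 nM) at 0.1% DMSO.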

[1] = 0.5 nM HDM2 (residues 17 to 125), 3nM peptide, two hour incubation at room temperature, read-out: FRET IC50

T1 sequence (Q00987 17-125): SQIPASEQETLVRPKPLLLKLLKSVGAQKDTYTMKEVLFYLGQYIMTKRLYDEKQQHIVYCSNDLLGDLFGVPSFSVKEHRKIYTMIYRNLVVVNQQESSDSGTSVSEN

Compound: C[C@H]1CC[C@H](Cn2c(N3CCOC[C@H]3c3ccccc3)nc3nc(-c4noc(=O)[nH]4)nc(-c4cccc(Cl)c4F)c32)CC1 [Example 16.23, 3-{6-(3-chloro-2-fluorophenyl)-7-[(trans-4-methylcyclohexyl)methyl]-8-[(3R)-3-phenylmorpholin-4-yl]-7H-purin-2-yl}-1,2,4-oxadiazol-5(4H)-one]
- IC50 [1]: 1.44 nM

Compound: C[C@H]1CC[C@H](Cn2c(N3CCOC[C@H]3CF)nc3nc(-c4n[nH]c(=O)o4)nc(-c4cncc(Cl)c4)c32)CC1 [Example 16.139, 5-{6-(5-chloropyridin-3-yl)-8-[(3S)-3-(fluoromethyl)morpholin-4-yl]-7-[(trans-4-methylcyclohexyl)methyl]-7H-purin-2-yl}-1,3,4-oxadiazol-2(3H)-one]
- IC50 [1]: 37.1 nM

Compound: C[C@@H](Nc1nc(C(=O)O)nc2nc(N3C4CCCC3CC4)n(C[C@H]3CC[C@H](C)CC3)c12)C1CCC1 [Example 11.26, 8-(8-azabicyclo[3.2.1]oct-8-yl)-6-{[(1R)-1-cyclobutylethyl]amino}-7-[(trans-4-methylcyclohexyl)methyl]-7H-purine-2-carboxylic acid]
- IC50 (FRET IC50): 3.57 nM

Compound: COC(=O)[C@@H]1COCCN1c1nc2nc(-c3noc(=O)[nH]3)nc(-c3cccc(Cl)c3)c2n1C[C@H]1CC[C@H](C)CC1 [Example 16.48, methyl (3S)-4-[6-(3-chlorophenyl)-7-[(trans-4-methylcyclohexyl)methyl]-2-(5-oxo-4,5-dihydro-1,2,4-oxadiazol-3-yl)-7H-purin-8-yl]morpholine-3-carboxylate]
- IC50 [1]: 88.3 nM

Compound: Cc1cccc(-c2nc(-c3n[nH]c(=O)o3)nc3nc(N4CCOC[C@H]4C)n(C[C@H]4CC[C@H](C)CC4)c23)c1 [Example 16.32, 5-{7-[(trans-4-methylcyclohexyl)methyl]-8-[(3R)-3-methylmorpholin-4-yl]-6-(3-methylphenyl)-7H-purin-2-yl} -1,3,4-oxadiazol-2(3H)-one]
- IC50 [1]: 60.5 nM

Compound: C[C@@H](Nc1nc(-c2noc(=O)[nH]2)nc2nc(S(=O)(=O)c3ccccc3)n(C[C@H]3CC[C@H](C)CC3)c12)C1CCC1 [Example 19.3, 3-[6-{[(1R)-1-cyclobutylethyl]amino}-7-[(trans-4-methylcyclohexyl)methyl]-8-(phenylsulfonyl)-7H-purin-2-yl]-1,2,4-oxadiazol-5(4H)-one]
- IC50 (Table 19, read-out: FRET IC50): 0.943 nM

Compound: C[C@@H](Nc1nc(-c2noc(=O)[nH]2)nc2nc(N3CC(C)(O)C3)n(C[C@H]3CC[C@H](C)CC3)c12)C1CCC1 [Example 11.103, 3-(6-{[(1R)-1-cyclobutylethyl]amino}-8-(3-hydroxy-3-methylazetidin-1-yl)-7-[(trans-4-methylcyclohexyl)methyl]-7H-purin-2-yl)-1,2,4-oxadiazol-5(2H)-one]
- IC50 (Table 11, read-out: FRET IC50): 36.2 nM

Compound: C[C@@H](Nc1nc(C(=O)O)nc2nc(-c3cc(C4CCC4)ccn3)n(C[C@H]3CC[C@H](C)CC3)c12)C1CCC1 [Example 15.18, 6-{[(1R)-1-cyclobutylethyl]amino}-8-(4-cyclobutylpyridin-2-yl)-7-[(trans-4-methylcyclohexyl)methyl]-7H-purine-2-carboxylic acid]
- IC50 [1]: 1.8 nM

Compound: Cc1cccc(-c2nc3nc(C(=O)O)nc(N[C@H](C)c4ccccc4)c3n2Cc2ccc(C(F)(F)F)cc2)c1 [Example 6.30, 8-(3-methylphenyl)-6-{[(1R)-1-phenylethyl]amino}-7-[4-(trifluoromethyl)benzyl]-7H-purine-2-carboxylic acid]
- IC50 (Table 6, read-out: FRET IC50): 1490 nM

Compound: CC(O)c1nc2nc(C(=O)O)nc(N[C@H](C)C3CCC3)c2n1Cc1ccc(C(F)(F)F)cc1 (stereo partly drawn) [Example 10.7, 6-(((R)-1-Cyclobutylethyl)amino)-8-(1-hydroxyethyl)-7-(4-(trifluoromethyl)benzyl)-7H-purine-2-carboxylic acid]
- IC50 (Table 10, read-out: FRET IC50): 140 nM

Compound: CC(C)c1ccnc(-c2nc3nc(C(=O)O)nc(N[C@H](C)C4CCC4)c3n2C[C@H]2CC[C@H](C)CC2)c1F [Example 15.6, 6-(((R)-1-Cyclobutylethyl)amino)-8-(3-fluoro-4-isopropylpyridin-2-yl)-7-((trans-4-methylcyclohexyl)methyl)-7H-purine-2-carboxylic acid]
- IC50 [1]: 6.02 nM

Compound: C[C@@H](Nc1nc(C(=O)O)nc2nc(N(C)c3ccccc3)n(Cc3ccc(C(F)(F)F)cc3)c12)C1CCC1 [Example 9.2, 6-{[(1R)-1-cyclobutylethyl]amino}-8-[methyl(phenyl)amino]-7-[4-(trifluoromethyl)benzyl]-7H-purine-2-carboxylic acid]
- IC50 (Table 9, read-out: FRET IC50): 20.7 nM

Compound: CC(C)[C@@H]1COCCN1c1nc2nc(-c3noc(=O)[nH]3)nc(-c3cccc(Cl)c3)c2n1C[C@H]1CC[C@H](C)CC1 [Example 16.42, 3-{6-(3-chlorophenyl)-7-[(trans-4-methylcyclohexyl)methyl]-8-[(3R)-3-(1-methylethyl)morpholin-4-yl]-7H-purin-2-yl}-1 ,2,4-oxadiazol-5(4H)-one]
- IC50 [1]: 3.62 nM

Compound: CC(C)c1ccnc(-c2nc3nc(C(=O)O)nc(N[C@H](C)C(F)(F)F)c3n2C[C@H]2CC[C@H](C)CC2)c1 [Example 15.22, 7-[(trans-4-methylcyclohexyl)methyl]-8-[4-(1-methylethyl)pyridin-2-yl]-6-{[(1R)-2,2,2-trifluoro-1-methylethyl]amino}-7H-purine-2-carboxylic acid]
- IC50 [1]: 17.9 nM

Compound: COC1(c2nc3nc(-c4noc(=O)[nH]4)nc(-c4cncc(Cl)c4)c3n2C[C@H]2CC[C@H](C)CC2)CCC1 [Example 23.62, 3-{6-(5-chloropyridin-3-yl)-8-(1-methoxycyclobutyl)-7-[(trans-4-methylcyclohexyl)methyl] -7H-purin-2-yl}-1,2,4-oxadiazol-5(4H)-one]
- IC50 (Table 23, read-out: FRET IC50): 13.1 nM

Compound: Cc1cccc(-c2nc3nc(C(=O)O)nc(OCC4CC4)c3n2Cc2ccc(C(F)(F)F)cc2)c1 [Example 17.2, 6-(cyclopropylmethoxy)-8-(3-methylphenyl)-7-[4-(trifluoromethyl)benzyl]-7H-purine-2-carboxylic acid]
- IC50 [1]: 814 nM

Compound: Cc1cccc(-c2nc3ncnc(N[C@H](CCCO)C4CCC4)c3n2Cc2ccc(C(F)(F)F)cc2)c1 [Example 7.3, (4R)-4-cyclobutyl-4-({8-(3-methylphenyl)-7-[4-(trifluoromethyl)benzyl]-7H-purin-6-yl}amino)butan-1-ol]
- IC50 (Table 7, read-out: FRET IC50): 3240 nM

Compound: C[C@@H](Nc1nc(-c2n[nH]c(=O)n2C)nc2nc(C3(c4ccccc4)CCC3)n(C[C@H]3CC[C@H](C)CC3)c12)C1CCC1 [Example 20.9, 5-[6-{[(1R)-1-cyclobutylethyl]amino}-7-[(trans-4-methylcyclohexyl)methyl]-8-(1-phenylcyclobutyl)-7H-purin-2-yl]-4-methyl-2,4-dihydro-3H-1,2,4-triazol-3-one]
- IC50 (Table 20, read-out: FRET IC50): 84.4 nM

Compound: CC(c1ccc(F)cc1)c1nc2nc(-c3noc(=O)[nH]3)nc(N[C@H](C)C3CCC3)c2n1C[C@H]1CC[C@H](C)CC1 (stereo partly drawn) [Example 21.31, 3-(6-{[(1R)-1-cyclobutylethyl]amino}-8-[1-(4-fluorophenyl)ethyl]-7-[(trans-4-methylcyclohexyl)methyl]-7H-purin-2-yl)-1,2,4-oxadiazol-5(4H)-one]
- IC50 (Table 21, read-out: FRET IC50): 10.5 nM

Compound: C[C@@H](Nc1nc(-c2noc(=O)[nH]2)nc2nc(C3CCCCC3c3ccccc3)n(C[C@H]3CC[C@H](C)CC3)c12)C1CCC1 (single isomer, unassigned) [Example 21.25]
- IC50 (Table 21, read-out: FRET IC50): 28.9 nM
